{
  "source": "patent US7834006B2",
  "about": "“Fused polycyclic compounds” (Ajinomoto Co., Inc., priority 2004, dated 2010)",
  "system": "adipose cells of rats",
  "assay": "Evaluation of the sugar transporting capacity (2-[14C(U)]-deoxy-D-glucose incorporation)",
  "type": "cell-based",
  "conditions": "insulin 100 nM; rat adipose cells; 2-deoxy-D-glucose incorporation",
  "description": "Preparation of Adipose Cells of Rats:\nAfter the decapitation and venesection of 6 male Wistar rats (body weight: 150 to 200 g), an incision was made in the abdomen of each rat to extract 6 g in total of epididymal adipose tissues. The tissues were finely cut into 2 mm×2 mm pieces in 6 ml of KRH (Krebs-Ringer Hepes, composition: 130 mM of sodium chloride, 4.7 mM of potassium chloride, 1.2 mM of potassium dihydrogenphosphate, 1.2 mM of magnesium sulfate, 1 mM of calcium chloride and 25 mM of Hepes, pH=7.6) containing 5% of BSA (bovine serum albumin). 24 mg of collagenase (type I) was added thereto and the digestion treatment was conducted for about 40 minutes to obtain about 6 ml of isolated adipose cells. The collagenase was removed by the buffer exchange. 2% BSA/KRH solution was added to the residue for the re-suspension to obtain 45 ml of an adipose cell suspension.\nEvaluation of the Sugar Transporting Capacity: […]\nThe sugar transporting capacity was evaluated by measuring the quantity of 2-[^14C(U)]-deoxy-D-glucose incorporated per a unit time. […] The quantity of 2-[^14C(U)]-deoxy-D-glucose contained in the adipose cell layer was determined with a liquid scintillation counter to determine the quantity of the incorporated sugar.",
  "data": [
    {"substance": "insulin", "values": [
      {"measurement": "effect of increasing the sugar-transporting capacity versus insulin-free control group", "result": "about 7 times"}
    ]}
  ]
}
